Measurements as given in publication PMC6409085, “Three odorant-binding proteins are involved in the behavioral response of Sogatella furcifera to rice plant volatiles” (PeerJ, 2019).
Values joined by “and” are separate entries in the source; they are usually repeats but may differ in a detail not shown here. Identical values can stand only once.

Key:
Assay in all cases: biochemical
Format in all cases: binding
SfurOBP2 = SfurOBP2 (Sogatella furcifera, UniProt V5T759)
Description: (§1) Thirty-six rice odorants ([He et al., 2014]; [Wang et al., 2017]) and 1-N-phenyl-naphthylamine (1-NPN) were purchased from Sigma-Aldrich (St Louis, MO, USA). These odorants and 1-NPN were dissolved in high-performance liquid chromatography (HPLC) purify grade methanol for 1.0 mM as work solution.
(§2) Fluorescence competitive binding assays were performed on Tecan Spark 10M (Tecan Group Ltd., Männedorf, Switzerland) with the F96 Black ELIAS Plate (Sangon) ([Khuhro et al., 2017]; [Liu et al., 2017]). The solutions were excited at 337 nm and emission spectra were recorded between 390 and 490 nm. First, to test the binding constants of 1-NPN to the SfurOBPs, a 2.0 µM solution of protein in 50 mM Tris-HCl (pH = 7.4) was titrated with 1 mM 1-NPN to achieve virous concentrations. Next, the competitive binding of each odorant was measured using the 1-NPN as fluorescent reporter and odorant as competitor. The concentrations of protein and 1-NPN were both 2.0 µM, the odorant added after protein and 1-NPN added into the well of ELIAS Plate for 2 min. The final concentrations of each competitor were 2, 4, 6, 8, 10, 12, 14, 16, 18 and 20 µM. After 2 min of odorant added, the fluorescence intensity was measured and recorded. The volume of mixed solution in each well was maintained at 250 µL. Each interaction was performed in triplicates.
(§3) GraphPad Prism 7.0 software (GraphPad Software, Inc., La Jolla, CA, USA) was used to calculated and generated the binding constants (K1−NPN) of 1-NPN to SfurOBPs and relative Scatchard plots ([Ban et al., 2003]; [Li et al., 2016]). Dissociation constant (Ki) of each odorant to SfurOBP was computed from the corresponding IC50 value (the half maximal inhibitory concentration), using the following equation: Ki=[IC50]/(1 + [1-NPN]/K1−NPN), where [1-NPN] is the free concentration of 1-NPN and K1−NPN is the dissociation constant of the complex protein/1-NPN.

SfurOBP3 = SfurOBP3 (Sogatella furcifera, UniProt V5T818); conditions: OBP3, three replicate columns
Description: as §1, §2, §3

SfurOBP1 = SfurOBP1 (Sogatella furcifera, UniProt V5T8N5); conditions: OBP1, three replicate columns
Description: as §1, §2, §3

SfurOBP11 = SfurOBP11 (Sogatella furcifera, UniProt V5T6E3)
Description: as §1, §2, §3

Chain of SfurOBP1 (V5T8N5 entry or part of it): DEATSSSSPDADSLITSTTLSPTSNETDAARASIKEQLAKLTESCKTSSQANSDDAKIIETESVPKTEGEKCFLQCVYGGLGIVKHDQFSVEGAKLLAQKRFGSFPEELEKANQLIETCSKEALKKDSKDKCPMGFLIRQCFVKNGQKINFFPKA
Chain of SfurOBP2 (V5T759 entry or part of it): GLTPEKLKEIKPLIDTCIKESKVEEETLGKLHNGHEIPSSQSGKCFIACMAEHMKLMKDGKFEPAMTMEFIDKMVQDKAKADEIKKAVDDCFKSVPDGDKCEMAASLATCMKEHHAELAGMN
Chain of SfurOBP11 (V5T6E3 entry or part of it): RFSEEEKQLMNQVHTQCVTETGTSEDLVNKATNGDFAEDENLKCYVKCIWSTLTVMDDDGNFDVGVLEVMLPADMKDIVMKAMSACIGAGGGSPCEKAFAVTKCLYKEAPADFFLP
Chain of SfurOBP3 (V5T818 entry or part of it): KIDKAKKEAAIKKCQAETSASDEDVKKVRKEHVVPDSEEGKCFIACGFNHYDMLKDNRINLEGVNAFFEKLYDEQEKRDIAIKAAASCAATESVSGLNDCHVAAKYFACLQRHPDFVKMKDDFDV

SMILES: CCCCCCCCCCCCCCCC(=O)OC [MH(methyl hexadecanoate)]
- Fluorescence competitive binding assay, OBP2 (raw fluorescence reading) (SfurOBP2; ligand concentration 2 (unit not given), replicate column 1 of 3): 36028
- Fluorescence competitive binding assay, OBP2 (raw fluorescence reading) (SfurOBP2; ligand concentration 2 (unit not given), replicate column 2 of 3): 29538
- Fluorescence competitive binding assay, OBP2 (raw fluorescence reading) (SfurOBP2; ligand concentration 2 (unit not given), replicate column 3 of 3): 32173
- Fluorescence competitive binding assay, OBP2 (raw fluorescence reading) (SfurOBP2; ligand concentration 4 (unit not given), replicate column 1 of 3): 32085
- Fluorescence competitive binding assay, OBP2 (raw fluorescence reading) (SfurOBP2; ligand concentration 4 (unit not given), replicate column 2 of 3): 39967
- Fluorescence competitive binding assay, OBP2 (raw fluorescence reading) (SfurOBP2; ligand concentration 4 (unit not given), replicate column 3 of 3): 36772
- Fluorescence competitive binding assay, OBP2 (raw fluorescence reading) (SfurOBP2; ligand concentration 6 (unit not given), replicate column 1 of 3): 51385
- Fluorescence competitive binding assay, OBP2 (raw fluorescence reading) (SfurOBP2; ligand concentration 6 (unit not given), replicate column 2 of 3): 38065
- Fluorescence competitive binding assay, OBP2 (raw fluorescence reading) (SfurOBP2; ligand concentration 6 (unit not given), replicate column 3 of 3): 41844
- Fluorescence competitive binding assay, OBP2 (raw fluorescence reading) (SfurOBP2; ligand concentration 8 (unit not given), replicate column 1 of 3): 39886
- Fluorescence competitive binding assay, OBP2 (raw fluorescence reading) (SfurOBP2; ligand concentration 8 (unit not given), replicate column 2 of 3): 44063
- Fluorescence competitive binding assay, OBP2 (raw fluorescence reading) (SfurOBP2; ligand concentration 8 (unit not given), replicate column 3 of 3): 42977
- Fluorescence competitive binding assay, OBP2 (raw fluorescence reading) (SfurOBP2; ligand concentration 10 (unit not given), replicate column 1 of 3): 53038
- Fluorescence competitive binding assay, OBP2 (raw fluorescence reading) (SfurOBP2; ligand concentration 10 (unit not given), replicate column 2 of 3): 51904
- Fluorescence competitive binding assay, OBP2 (raw fluorescence reading) (SfurOBP2; ligand concentration 10 (unit not given), replicate column 3 of 3): 31312
- Fluorescence competitive binding assay, OBP2 (raw fluorescence reading) (SfurOBP2; ligand concentration 12 (unit not given), replicate column 1 of 3): 66556
- Fluorescence competitive binding assay, OBP2 (raw fluorescence reading) (SfurOBP2; ligand concentration 12 (unit not given), replicate column 2 of 3): 51896
- Fluorescence competitive binding assay, OBP2 (raw fluorescence reading) (SfurOBP2; ligand concentration 12 (unit not given), replicate column 3 of 3): 78968
- Fluorescence competitive binding assay, OBP2 (raw fluorescence reading) (SfurOBP2; ligand concentration 14 (unit not given), replicate column 1 of 3): 59847
- Fluorescence competitive binding assay, OBP2 (raw fluorescence reading) (SfurOBP2; ligand concentration 14 (unit not given), replicate column 2 of 3): 56230
- Fluorescence competitive binding assay, OBP2 (raw fluorescence reading) (SfurOBP2; ligand concentration 14 (unit not given), replicate column 3 of 3): 65733
- Fluorescence competitive binding assay, OBP2 (raw fluorescence reading) (SfurOBP2; ligand concentration 16 (unit not given), replicate column 1 of 3): 57526
- Fluorescence competitive binding assay, OBP2 (raw fluorescence reading) (SfurOBP2; ligand concentration 16 (unit not given), replicate column 2 of 3): 53371
- Fluorescence competitive binding assay, OBP2 (raw fluorescence reading) (SfurOBP2; ligand concentration 16 (unit not given), replicate column 3 of 3): 59678
- Fluorescence competitive binding assay, OBP2 (raw fluorescence reading) (SfurOBP2; ligand concentration 18 (unit not given), replicate column 1 of 3): 69952
- Fluorescence competitive binding assay, OBP2 (raw fluorescence reading) (SfurOBP2; ligand concentration 18 (unit not given), replicate column 2 of 3): 81927
- Fluorescence competitive binding assay, OBP2 (raw fluorescence reading) (SfurOBP2; ligand concentration 18 (unit not given), replicate column 3 of 3): 73816
- Fluorescence competitive binding assay, OBP2 (raw fluorescence reading) (SfurOBP2; ligand concentration 20 (unit not given), replicate column 1 of 3): 72726
- Fluorescence competitive binding assay, OBP2 (raw fluorescence reading) (SfurOBP2; ligand concentration 20 (unit not given), replicate column 2 of 3): 69859
- Fluorescence competitive binding assay, OBP2 (raw fluorescence reading) (SfurOBP2; ligand concentration 20 (unit not given), replicate column 3 of 3): 85793
- Fluorescence competitive binding assay, fluorescence intensity (SfurOBP3; ligand concentration 2): 79169 and 74941 and 94761
- Fluorescence competitive binding assay, fluorescence intensity (SfurOBP3; ligand concentration 4): 75066 and 75962 and 116353
- Fluorescence competitive binding assay, fluorescence intensity (SfurOBP3; ligand concentration 6): 80726 and 113361 and 131059
- Fluorescence competitive binding assay, fluorescence intensity (SfurOBP3; ligand concentration 8): 127533 and 115294 and 124955
- Fluorescence competitive binding assay, fluorescence intensity (SfurOBP3; ligand concentration 10): 151439 and 140422 and 180514
- Fluorescence competitive binding assay, fluorescence intensity (SfurOBP3; ligand concentration 12): 128094 and 97542 and 122147
- Fluorescence competitive binding assay, fluorescence intensity (SfurOBP3; ligand concentration 14): 143468 and 130975 and 143763
- Fluorescence competitive binding assay, fluorescence intensity (SfurOBP3; ligand concentration 16): 147668 and 180253 and 155136
- Fluorescence competitive binding assay, fluorescence intensity (SfurOBP3; ligand concentration 18): 151347 and 96227 and 180613
- Fluorescence competitive binding assay, fluorescence intensity (SfurOBP3; ligand concentration 20): 179130 and 144685 and 179646
- Fluorescence competitive binding assay, fluorescence intensity (SfurOBP1; ligand concentration 2 (μM)): 12147 and 12451 and 12785
- Fluorescence competitive binding assay, fluorescence intensity (SfurOBP1; ligand concentration 4 (μM)): 16267 and 16004 and 15123
- Fluorescence competitive binding assay, fluorescence intensity (SfurOBP1; ligand concentration 6 (μM)): 22521 and 20565 and 17849
- Fluorescence competitive binding assay, fluorescence intensity (SfurOBP1; ligand concentration 8 (μM)): 45300 and 22408 and 22243
- Fluorescence competitive binding assay, fluorescence intensity (SfurOBP1; ligand concentration 10 (μM)): 28286 and 29968 and 28368
- Fluorescence competitive binding assay, fluorescence intensity (SfurOBP1; ligand concentration 12 (μM)): 32121 and 35150 and 30012
- Fluorescence competitive binding assay, fluorescence intensity (SfurOBP1; ligand concentration 14 (μM)): 38613 and 36070 and 36799
- Fluorescence competitive binding assay, fluorescence intensity (SfurOBP1; ligand concentration 16 (μM)): 34740 and 38687 and 36378
- Fluorescence competitive binding assay, fluorescence intensity (SfurOBP1; ligand concentration 18 (μM)): 40518 and 49298 and 40325
- Fluorescence competitive binding assay, fluorescence intensity (SfurOBP1; ligand concentration 20 (μM)): 47871 and 41141 and 44944
- Fluorescence intensity, fluorescence competitive binding assay, OBP11 (SfurOBP11; ligand concentration 2, replicate 1): 29421
- Fluorescence intensity, fluorescence competitive binding assay, OBP11 (SfurOBP11; ligand concentration 2, replicate 2): 25881
- Fluorescence intensity, fluorescence competitive binding assay, OBP11 (SfurOBP11; ligand concentration 2, replicate 3): 28224
- Fluorescence intensity, fluorescence competitive binding assay, OBP11 (SfurOBP11; ligand concentration 4, replicate 1): 30123
- Fluorescence intensity, fluorescence competitive binding assay, OBP11 (SfurOBP11; ligand concentration 4, replicate 2): 33254
- Fluorescence intensity, fluorescence competitive binding assay, OBP11 (SfurOBP11; ligand concentration 4, replicate 3): 33112
- Fluorescence intensity, fluorescence competitive binding assay, OBP11 (SfurOBP11; ligand concentration 6, replicate 1): 36335
- Fluorescence intensity, fluorescence competitive binding assay, OBP11 (SfurOBP11; ligand concentration 6, replicate 2): 36906
- Fluorescence intensity, fluorescence competitive binding assay, OBP11 (SfurOBP11; ligand concentration 6, replicate 3): 37537
- Fluorescence intensity, fluorescence competitive binding assay, OBP11 (SfurOBP11; ligand concentration 8, replicate 1): 38631
- Fluorescence intensity, fluorescence competitive binding assay, OBP11 (SfurOBP11; ligand concentration 8, replicate 2): 37383
- Fluorescence intensity, fluorescence competitive binding assay, OBP11 (SfurOBP11; ligand concentration 8, replicate 3): 37911
- Fluorescence intensity, fluorescence competitive binding assay, OBP11 (SfurOBP11; ligand concentration 10, replicate 1): 41192
- Fluorescence intensity, fluorescence competitive binding assay, OBP11 (SfurOBP11; ligand concentration 10, replicate 2): 43341
- Fluorescence intensity, fluorescence competitive binding assay, OBP11 (SfurOBP11; ligand concentration 10, replicate 3): 42267
- Fluorescence intensity, fluorescence competitive binding assay, OBP11 (SfurOBP11; ligand concentration 12, replicate 1): 42172
- Fluorescence intensity, fluorescence competitive binding assay, OBP11 (SfurOBP11; ligand concentration 12, replicate 2): 43002
- Fluorescence intensity, fluorescence competitive binding assay, OBP11 (SfurOBP11; ligand concentration 12, replicate 3): 44132
- Fluorescence intensity, fluorescence competitive binding assay, OBP11 (SfurOBP11; ligand concentration 14, replicate 1): 50939
- Fluorescence intensity, fluorescence competitive binding assay, OBP11 (SfurOBP11; ligand concentration 14, replicate 2): 48639
- Fluorescence intensity, fluorescence competitive binding assay, OBP11 (SfurOBP11; ligand concentration 14, replicate 3): 49789
- Fluorescence intensity, fluorescence competitive binding assay, OBP11 (SfurOBP11; ligand concentration 16, replicate 1): 53380
- Fluorescence intensity, fluorescence competitive binding assay, OBP11 (SfurOBP11; ligand concentration 16, replicate 2): 53280
- Fluorescence intensity, fluorescence competitive binding assay, OBP11 (SfurOBP11; ligand concentration 16, replicate 3): 53495
- Fluorescence intensity, fluorescence competitive binding assay, OBP11 (SfurOBP11; ligand concentration 18, replicate 1): 69760
- Fluorescence intensity, fluorescence competitive binding assay, OBP11 (SfurOBP11; ligand concentration 18, replicate 2): 71076
- Fluorescence intensity, fluorescence competitive binding assay, OBP11 (SfurOBP11; ligand concentration 18, replicate 3): 64769
- Fluorescence intensity, fluorescence competitive binding assay, OBP11 (SfurOBP11; ligand concentration 20, replicate 1): 67623
- Fluorescence intensity, fluorescence competitive binding assay, OBP11 (SfurOBP11; ligand concentration 20, replicate 2): 62432
- Fluorescence intensity, fluorescence competitive binding assay, OBP11 (SfurOBP11; ligand concentration 20, replicate 3): 62669
